The record followed here is US20250090699A1, “FAP TARGETING CYCLIC PEPTIDES AND CONJUGATES THEREOF” (Novartis AG, priority 2023, published 2025).

The target in assay [1] is T1, mouse FAP (Mus musculus, UniProt P97321).
T1 construct: biotinylated His, Avi tag, mouse FAP (26-761, FAP-M82Q5); His; Avi tag (biotinylated); purchased AcroBiosystems FAP-M82Q5
T1 sequence (P97321 26-761): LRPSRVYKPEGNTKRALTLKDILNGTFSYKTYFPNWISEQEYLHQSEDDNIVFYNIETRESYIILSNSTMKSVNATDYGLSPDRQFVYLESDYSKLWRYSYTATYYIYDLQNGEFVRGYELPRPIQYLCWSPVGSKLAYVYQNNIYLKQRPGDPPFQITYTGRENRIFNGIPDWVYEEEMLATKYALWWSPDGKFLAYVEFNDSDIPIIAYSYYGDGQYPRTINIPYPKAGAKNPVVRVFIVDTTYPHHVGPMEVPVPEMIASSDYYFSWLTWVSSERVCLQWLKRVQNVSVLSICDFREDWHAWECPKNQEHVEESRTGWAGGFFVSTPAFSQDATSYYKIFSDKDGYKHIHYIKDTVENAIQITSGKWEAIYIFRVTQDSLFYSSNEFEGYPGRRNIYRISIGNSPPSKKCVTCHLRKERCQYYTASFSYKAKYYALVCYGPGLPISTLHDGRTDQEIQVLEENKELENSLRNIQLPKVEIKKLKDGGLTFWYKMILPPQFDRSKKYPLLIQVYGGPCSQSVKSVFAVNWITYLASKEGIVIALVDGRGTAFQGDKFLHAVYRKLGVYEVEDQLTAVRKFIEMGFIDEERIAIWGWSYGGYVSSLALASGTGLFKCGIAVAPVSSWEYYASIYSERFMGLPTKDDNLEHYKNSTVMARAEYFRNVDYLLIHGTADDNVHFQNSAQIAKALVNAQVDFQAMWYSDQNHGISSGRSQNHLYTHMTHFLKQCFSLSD
Kind of assay: Surface plasmon resonance (SPR) for peptide affinity, mouse FAP. Type of assay: binding. In outline:
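Biotinylated His/Avi-tagged FAP ectodomains (human 26-760, mouse 26-761) captured or immobilized on Biacore sensor chips; peptides run at 25 °C in HBS-EP+ pH 7.6 with 2% DMSO, single-cycle kinetics, 8 concentrations. KD from 1:1 binding-model fit of sensorgrams.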
Background: SPR reads the build-up and loss of mass on a sensor chip optically.

In assay [2] the target is T2, human FAP (Homo sapiens, UniProt Q12884).
T2 construct: the biotinylated His, Avi tag, human FAP (26-760, FAP-H82Q6); His; Avi tag (biotinylated); purchased AcroBiosystems FAP-H82Q6
T2 sequence (Q12884 26-760): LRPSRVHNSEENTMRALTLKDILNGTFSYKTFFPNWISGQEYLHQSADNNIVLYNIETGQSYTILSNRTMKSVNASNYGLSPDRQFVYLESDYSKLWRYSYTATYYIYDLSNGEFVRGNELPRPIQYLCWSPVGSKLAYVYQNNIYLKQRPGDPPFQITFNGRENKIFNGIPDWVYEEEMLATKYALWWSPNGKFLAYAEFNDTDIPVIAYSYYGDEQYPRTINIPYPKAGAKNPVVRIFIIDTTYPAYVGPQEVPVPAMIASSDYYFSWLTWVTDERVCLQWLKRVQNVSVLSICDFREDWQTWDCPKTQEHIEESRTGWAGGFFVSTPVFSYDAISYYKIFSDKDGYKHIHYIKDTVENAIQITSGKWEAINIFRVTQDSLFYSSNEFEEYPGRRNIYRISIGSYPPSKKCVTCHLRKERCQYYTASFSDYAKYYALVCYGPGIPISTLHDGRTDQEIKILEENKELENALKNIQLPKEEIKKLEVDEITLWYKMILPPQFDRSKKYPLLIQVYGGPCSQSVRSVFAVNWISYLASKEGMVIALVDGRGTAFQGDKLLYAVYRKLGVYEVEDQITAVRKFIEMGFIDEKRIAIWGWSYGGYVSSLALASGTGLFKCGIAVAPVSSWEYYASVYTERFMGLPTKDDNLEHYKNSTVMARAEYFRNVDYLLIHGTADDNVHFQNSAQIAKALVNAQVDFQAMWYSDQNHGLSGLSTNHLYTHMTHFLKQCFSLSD
Kind of assay: Enzymatic FAP competition assay (Z-Gly-Pro-AMC fluorescence), human FAP. The settings on record: read-out: h. FAP, Enz., IC50. In kind it is biochemical. A digest of the protocol: (§1)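 Biotinylated His/Avi-tagged FAP ectodomain (human 26-760, mouse 26-761) at 0.01 nM, preincubated 24 h with peptides (14 concentrations, up to 1 μM) in pH 7.5 phosphate, 150 mM NaCl, 0.05% Tween20, 1% DMSO. Then 50 μM Z-Gly-Pro-AMC, 4 h at 22-24° C; AMC fluorescence (380/460 nm) gave IC50 from duplicate points.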

Assay [3] deals with T1, mouse FAP. Kind of assay: Enzymatic FAP competition assay (Z-Gly-Pro-AMC fluorescence), mouse FAP. In kind it is biochemical. The settings on record: read-out: m. FAP, Enz., IC50. In outline:
as §1

Structures can show the parent of a compound that is named as a salt. Starred links: 1 amine or outer side, 2 acyl side, 3 side chain; linkers in the order of their positions; H or OH if unused. Non-standard residues stand in square brackets, D forms with d. Residues, ends and D or L forms follow the SMILES beside them. Groups on a side chain read outwards from the residue. *: point of attachment. Piperazinyl(4-CH2COOH) = O=C(O)CN1CCN(*)CC1; 3Pal(6-NH2) = Nc1ccc(C[C@H](N)C(=O)O)cn1; NMeAla(cPent) = CN[C@@H](CC1CCCC1)C(=O)O; AEF = NCCOc1ccc(C[C@H](N)C(=O)O)cc1; NMeY = CN[C@@H](Cc1ccc(O)cc1)C(=O)O; NMeCha = CN[C@@H](CC1CCCCC1)C(=O)O; NMeF = CN[C@@H](Cc1ccccc1)C(=O)O; dHyp = O=C(O)[C@H]1C[C@H](O)CN1; Ahp(2) = CCCCC[C@H](N)C(=O)O; hSer = N[C@@H](CCO)C(=O)O; CO = O=C([*:1])[*:2]

As usually defined, the Kd is the free concentration of one partner at which half of the binding sites on the other are occupied at equilibrium, for simple one-to-one binding. A high value points to weaker binding. A word on the IC50: it is the point on the concentration scale where inhibition reaches its midpoint.

On to `CCCCC[C@@H]1NC(=O)[C@H](Cc2ccc(O)cc2)NC(=O)[C@H](Cc2ccccc2)N(C)C(=O)CNC(=O)[C@H](CCCCN)NC(=O)[C@H]2C[C@H](O)CN2C(=O)[C@H](CC(=O)O)NC(=O)[C@H](Cc2ccc(O)cc2)NC(=O)CNC(=O)[C@H](Cc2c[nH]c3ccccc23)NC1=O` [Example A41, Lys-Gly-NMePhe-Tyr-Ahp-Trp-Gly-Tyr-Asp-D-trans4hyp, TFA salt] (cyclo([Ahp(2)]WGYD[dHyp]KG[NMeF]Y)), for which the Kd in assay [1] stood at 12 nM. In addition, the values for the 50% inhibitory concentration (IC50) in assay [2] and in assay [3] were 2.2 nM and 5.3 nM, respectively.
In the same order, the values of `CCCCC[C@@H]1NC(=O)[C@H](Cc2ccc(O)cc2)NC(=O)[C@H](Cc2ccccc2)N(C)C(=O)CNC(=O)[C@H](CCO)NC(=O)[C@H]2CCCN2C(=O)[C@H](CC(=O)O)NC(=O)[C@H](Cc2ccc(O)cc2)NC(=O)CNC(=O)[C@H](Cc2c[nH]c3ccccc23)NC1=O` [Example A42, hSer-Gly-NMePhe-Tyr-Ahp-Trp-Gly-Tyr-Asp-D-Pro] (cyclo([Ahp(2)]WGYD[dP][hSer]G[NMeF]Y)) are 0.2 nM, 0.089 nM and 0.36 nM.
On the same counts, the results for `CCCCC[C@@H]1NC(=O)[C@H](Cc2ccc(O)cc2)NC(=O)[C@H](CC2CCCCC2)N(C)C(=O)CNC(=O)[C@H](CCCCN)NC(=O)[C@H]2CCCN2C(=O)[C@H](CC(=O)O)NC(=O)[C@H](Cc2ccc(O)cc2)NC(=O)CNC(=O)[C@H](Cc2c[nH]c3ccccc23)NC1=O` [Example A43, Lys-Gly-NMecHexA-Tyr-Ahp-Trp-Gly-Tyr-Asp-D-Pro, TFA salt] (cyclo([Ahp(2)]WGYD[dP]KG[NMeCha]Y)) are 0.188 nM, 0.069 nM and 0.189 nM.
On the same counts, the results for `CCCCC[C@@H]1NC(=O)[C@H](Cc2ccc(O)cc2)NC(=O)[C@H](CC2CCCC2)N(C)C(=O)CNC(=O)[C@H](CCCCN)NC(=O)[C@H]2CCCN2C(=O)[C@H](CC(=O)O)NC(=O)[C@H](Cc2ccc(O)cc2)NC(=O)CNC(=O)[C@H](Cc2c[nH]c3ccccc23)NC1=O` [Example A44, Lys-Gly-NMecPenA-Tyr-Ahp-Trp-Gly-Tyr-Asp-D-Pro, TFA salt] (cyclo([Ahp(2)]WGYD[dP]KG[NMeAla(cPent)]Y)) are 2.7 nM, 0.54 nM and 2.5 nM.
Compound `CCCCC[C@@H]1NC(=O)[C@H](Cc2ccc(OCCN)cc2)NC(=O)[C@H](Cc2ccccc2)N(C)C(=O)CNC(=O)CNC(=O)[C@H]2CCCN2C(=O)[C@H](CC(=O)O)NC(=O)[C@H](Cc2ccc(N)nc2)NC(=O)CNC(=O)[C@H](Cc2c[nH]c3ccccc23)NC1=O` [Example A45, Gly-Gly-NMePhe-F(4OEtNH2)-Ahp-Trp-Gly-3PyA(6NH2)-Asp-D-Pro, TFA salt] (cyclo([AEF][Ahp(2)]WG[3Pal(6-NH2)]D[dP]GG[NMeF])) came in with a Kd in assay [1] of 0.54 nM. The IC50 in assay [2] stood at 0.192 nM; in assay [3], 0.93 nM.
In assay [1], `CCCCC[C@@H]1NC(=O)[C@H](Cc2ccc(OCCN)cc2)NC(=O)[C@H](Cc2ccccc2)N(C)C(=O)CNC(=O)[C@H](CCCCNC(=O)N2CCN(CC(=O)O)CC2)NC(=O)[C@H]2CCCN2C(=O)[C@H](CC(=O)O)NC(=O)[C@H](Cc2ccc(O)cc2)NC(=O)CNC(=O)[C@H](Cc2c[nH]c3ccccc23)NC1=O` [Example A46, K(COpipzaa)-Gly-NMePhe-F(4OEtNH2)-Ahp-Trp-Gly-Tyr-Asp-D-Pro, TFA salt] (cyclo([AEF][Ahp(2)]WGYD[dP]K([CO-Piperazinyl(4-CH2COOH)])G[NMeF])) came in with a Kd of 2.2 nM. Moreover, the values for the IC50 in assay [2] and in assay [3] were 0.5 nM and 2.8 nM, respectively.
For the compound `CCCCC[C@@H]1NC(=O)[C@H](Cc2ccc(OCCN)cc2)NC(=O)[C@H](Cc2ccccc2)N(C)C(=O)CNC(=O)[C@H](CCO)NC(=O)[C@H]2CCCN2C(=O)[C@H](CC(=O)O)NC(=O)[C@H](Cc2ccc(O)cc2)NC(=O)CNC(=O)[C@H](Cc2c[nH]c3ccccc23)NC1=O` [Example A47, hSer-Gly-NMePhe-F(4OEtNH2)-Ahp-Trp-Gly-Tyr-Asp-D-Pro, TFA salt] (cyclo([AEF][Ahp(2)]WGYD[dP][hSer]G[NMeF])), the Kd in assay [1] stood at 0.48 nM. Moreover, the IC50 amounted to 0.181 nM in assay [2] and 0.6 nM in assay [3].
In the case of `CCCCC[C@@H]1NC(=O)[C@H](Cc2ccc(O)cc2)NC(=O)[C@H](Cc2ccccc2)N(C)C(=O)CNC(=O)CNC(=O)[C@H]2CCCN2C(=O)[C@H](CC(=O)O)NC(=O)[C@H](Cc2ccc(O)cc2)N(C)C(=O)CNC(=O)[C@H](Cc2c[nH]c3ccccc23)NC1=O` [Example A50, 2-((9S,12S,15S,18S,24S,27S,32aR)-18-((1H-indol-3-yl)methyl)-9-benzyl-12,24-bis(4-hydroxybenzyl)-8,23-dimethyl-1,4,7,10,13,16,19,22,25,28-decaoxo-15-pentyldotriacontahydropyrrolo[1,2-a][1,4,7,10,13,16,19,22,25,28]decaazacyclotriacontin-27-yl)acetic acid] (cyclo([Ahp(2)]WG[NMeY]D[dP]GG[NMeF]Y)), in assay [1], the Kd was 2.8 nM. For the same compound, the IC50 was 0.95 nM in assay [2] and 2.4 nM in assay [3].
In turn, `CCCCC[C@@H]1NC(=O)[C@H](Cc2ccc(O)cc2)NC(=O)[C@H](Cc2ccccc2)N(C)C(=O)CNC(=O)[C@H](CCCCN)NC(=O)[C@H]2CCCN2C(=O)[C@H](CC(=O)O)NC(=O)[C@H](Cc2ccc(O)cc2)NC(=O)CNC(=O)[C@H](Cc2c[nH]c3ccccc23)NC1=O` [Example A53, Lys-Gly-NMePhe-Tyr-Ahp-Trp-Gly-Tyr-Asp-D-Pro, TFA salt] (cyclo([Ahp(2)]WGYD[dP]KG[NMeF]Y)) gave a dissociation constant (Kd) in assay [1] of 0.72 nM. Besides, the IC50 in assay [2] was 0.4 nM; in assay [3], 1.3 nM.
With `CCCCC[C@@H]1NC(=O)[C@H](Cc2ccc(O)cc2)NC(=O)[C@H](Cc2ccccc2)N(C)C(=O)CNC(=O)CNC(=O)[C@H]2CCCN2C(=O)[C@H](CCCCNC(C)=O)NC(=O)[C@H](Cc2ccc(O)cc2)NC(=O)CNC(=O)[C@H](Cc2c[nH]c3ccccc23)NC1=O` [Example A55, Gly-Gly-NMePhe-Tyr-Ahp-Trp-Gly-Tyr-K(Ac)-D-Pro] (cyclo([Ahp(2)]WGYK(Ac)[dP]GG[NMeF]Y)), binding in assay [1] was put at a Kd of 135 nM. For the same compound, the IC50 in assay [2] turned out to be 24 nM; in assay [3] it was 84 nM.
In the same order, the values of `CCCCC[C@@H]1NC(=O)[C@H](Cc2ccc(O)cc2)NC(=O)[C@H](Cc2ccccc2)N(C)C(=O)CNC(=O)CNC(=O)[C@H]2CCCN2C(=O)[C@H](C)NC(=O)[C@H](Cc2ccc(O)cc2)NC(=O)CNC(=O)[C@H](Cc2c[nH]c3ccccc23)NC1=O` [Example A56, Gly-Gly-NMePhe-Tyr-Ahp-Trp-Gly-Tyr-Ala-D-Pro] (cyclo(A[dP]GG[NMeF]Y[Ahp(2)]WGY)) are 32 nM, 4.2 nM and 31 nM.
On to `CCCCC[C@@H]1NC(=O)[C@H](Cc2ccc(O)cc2)NC(=O)[C@H](Cc2ccccc2)N(C)C(=O)CNC(=O)CNC(=O)[C@H]2CCCN2C(=O)[C@H](CCO)NC(=O)[C@H](Cc2ccc(O)cc2)NC(=O)CNC(=O)[C@H](Cc2c[nH]c3ccccc23)NC1=O` [Example A57, Gly-Gly-NMePhe-Tyr-Ahp-Trp-Gly-Tyr-hSer-D-Pro] (cyclo([Ahp(2)]WGY[hSer][dP]GG[NMeF]Y)), for which the Kd in assay [1] is 19 nM. In addition, the results for the half-inhibitory concentration (IC50) in assay [2] and in assay [3] were 6.6 nM and 25 nM, respectively.
